Measurements: patent publication US20120316183A1, “NOVEL SOLVATES OF METHYLCARBAMATE” (Bayer Intellecutal Property GmbH, priority 2009, published 2012)

Experiment: processability of the solid form (grinding / micronization, flowability, sievability)
Format: physicochemical

COC(=O)Nc1c(N)nc(-c2nn(Cc3ccccc3F)c3ncccc23)nc1N [modification I, methyl {4,6-diamino-2-[1-(2-fluorobenzyl)-1H-pyrazolo[3,4-b]pyridin-3-yl]pyrimidin-5-yl}carbamate]
grindability (micronization step): difficult to grind

COC(=O)Nc1c(N)nc(-c2nn(Cc3ccccc3F)c3ncccc23)nc1N [semi-ethanol solvate of the formula (Ia), semi-ethanol solvate of methyl {4,6-diamino-2-[1-(2-fluorobenzyl)-1H-Pyrazolo[3,4-b]pyridin-3-yl]pyrimidin-5-yl}carbamate]
flowability and sievability (compared to modification I of the compound of the formula (I)): better flowability and sievability | fineness and tail of coarse material in the micronisate (compared to modification I, micronisate): higher fine-ness and a reduced tail of coarse material
